According to the supplement of paper PMC11061612:

Tests used:
Experiment in all cases: combination Emax (second highest fraction inhibited in the dose matrix, 72 h); higher = more inhibition; extreme values may be limits of the assay
[1] = system: SK-MG-1 (Low Grade Glioma)
In short: (§1)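 Cell lines grown in DMEM/F12 or RPMI with 10% FBS were plated in 1536-well plates and held 24 hours at 37°C, 5% CO2 before 72 hours of exposure to two-drug dose matrices, with DMSO typically at 0.2%. CellTiter-Glo 2.0 luminescence gave viability, which was converted to inhibition. Vehicle wells were set to 0 and blank wells to 1. Combination Emax is the second-highest inhibition in the matrix, and Bliss excess is the observed combination effect minus the expected EA + EB − EA·EB, where EA and EB are the single-agent effects.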

[2] = system: KARPAS-422 (B-Cell Non-Hodgkin's Lymphoma)
In short: as §1

[3] = system: NCI-H64 (Small Cell Lung Carcinoma)
In short: as §1

GI-ME-N (Neuroblastoma) = system: GI-ME-N (Neuroblastoma)
In short: as §1

[4] = system: CCK-81 (Colorectal Carcinoma)
In short: as §1

[5] = system: SK-MES-1 (Squamous Cell Lung Carcinoma)
In short: as §1

LN-405 (Glioblastoma) = system: LN-405 (Glioblastoma)
In short: as §1

[6] = system: COLO-320-HSR (Colorectal Carcinoma)
In short: as §1

PA-1 (Ovarian Carcinoma) = system: PA-1 (Ovarian Carcinoma)
In short: as §1

[7] = system: COLO-824 (Breast Carcinoma)
In short: as §1

NCI-H2591 (Mesothelioma) = system: NCI-H2591 (Mesothelioma)
In short: as §1

[8] = system: NCI-H2141 (Small Cell Lung Carcinoma)
In short: as §1

U-2-OS (Osteosarcoma) = system: U-2-OS (Osteosarcoma)
In short: as §1

[9] = system: NCI-H1650 (Lung Adenocarcinoma)
In short: as §1

[10] = system: MDST8 (Colorectal Carcinoma)
In short: as §1

[11] = system: ECC10 (Gastric Carcinoma)
In short: as §1

[12] = system: NCI-H2066 (Squamous Cell Lung Carcinoma)
In short: as §1

[13] = system: NCI-H1581 (Non-Small Cell Lung Carcinoma)
In short: as §1

[14] = system: NCI-H1693 (Lung Adenocarcinoma)
In short: as §1

[15] = system: NCI-H1666 (Lung Adenocarcinoma)
In short: as §1

COc1cccc2c1C(=O)c1c(O)c3c(c(O)c1C2=O)C[C@@](O)(C(=O)CO)C[C@@H]3O[C@H]1C[C@H](N)[C@H](O)[C@H](C)O1 [Doxorubicin] + Cc1cc2ncnn2cc1Nc1ncc2c(n1)n(C1CCOCC1)c(=O)n2C [AZD7648] (first compound max 1 µM, 7x7, partner max 10 µM)
combination Emax [1]: 0.802
combination Emax [2]: 0.954
combination Emax [3]: 0.606
combination Emax (GI-ME-N (Neuroblastoma)): 0.812
combination Emax [4]: 0.477
combination Emax [5]: 0.686
combination Emax (LN-405 (Glioblastoma)): 0.335
combination Emax [6]: 0.464
combination Emax (PA-1 (Ovarian Carcinoma)): 0.892
combination Emax [7]: 0.501
combination Emax (NCI-H2591 (Mesothelioma)): 0.693
combination Emax [8]: 0.475
combination Emax (U-2-OS (Osteosarcoma)): 0.55
combination Emax [9]: 0.591
combination Emax [10]: 0.965
combination Emax [11]: 1
combination Emax [12]: 0.262
combination Emax [13]: 0.866
combination Emax [14]: 0.405
combination Emax [15]: 0.825

COc1cc2ncnc(Nc3ccc(F)c(Cl)c3)c2cc1OCCCN1CCOCC1 [Gefitinib] + CC(C)n1c(=O)n(C)c2cnc3cc(F)c(-c4ccc(OCCCN5CCCCC5)nc4)cc3c21 [AZD1390] (first compound max 10 µM, 7x7, partner max 0.3 µM)
combination Emax [1]: 0.072
combination Emax [2]: 0.128
combination Emax [3]: 0.152
combination Emax (GI-ME-N (Neuroblastoma)): 0.0541
combination Emax [4]: 0.661
combination Emax [5]: 0.408
combination Emax (LN-405 (Glioblastoma)): 0.104
combination Emax [6]: 0.19
combination Emax (PA-1 (Ovarian Carcinoma)): 0.351
combination Emax [7]: 0.366
combination Emax (NCI-H2591 (Mesothelioma)): 0.0235
combination Emax [8]: 0.0717
combination Emax (U-2-OS (Osteosarcoma)): 0.0294
combination Emax [9]: 0.236
combination Emax [10]: 0.0181
combination Emax [11]: 0.12
combination Emax [12]: 0.384
combination Emax [13]: 0.0926
combination Emax [14]: 0.419
combination Emax [15]: 0.484

CS(=O)(=O)CCNCc1ccc(-c2ccc3ncnc(Nc4ccc(OCc5cccc(F)c5)c(Cl)c4)c3c2)o1 [Lapatinib] + C[C@@H](Oc1cc(-c2cnn(C3CCNCC3)c2)cnc1N)c1c(Cl)ccc(F)c1Cl [Crizotinib] (first compound max 10 µM, 7x7, partner max 10 µM)
combination Emax [1]: 0.9
combination Emax [2]: 0.96
combination Emax [3]: 0.823
combination Emax (GI-ME-N (Neuroblastoma)): 0.392
combination Emax [4]: 0.975
combination Emax [5]: 0.966
combination Emax (LN-405 (Glioblastoma)): 0.493
combination Emax [6]: 0.894
combination Emax (PA-1 (Ovarian Carcinoma)): 1
combination Emax [7]: 0.94
combination Emax (NCI-H2591 (Mesothelioma)): 0.572
combination Emax [8]: 0.795
combination Emax (U-2-OS (Osteosarcoma)): 0.486
combination Emax [9]: 0.799
combination Emax [10]: 0.738
combination Emax [11]: 0.97
combination Emax [12]: 0.58
combination Emax [13]: 0.678
combination Emax [14]: 0.883
combination Emax [15]: 0.833

CC(=O)c1c(C)c2cnc(Nc3ccc(N4CCNCC4)cn3)nc2n(C2CCCC2)c1=O [Palbociclib] + CC1(C)CCC(CN2CCN(c3ccc(C(=O)NS(=O)(=O)c4ccc(NCC5CCOCC5)c([N+](=O)[O-])c4)c(Oc4cnc5[nH]ccc5c4)c3)CC2)=C(c2ccc(Cl)cc2)C1 [Venetoclax] (first compound max 10 µM, 7x7, partner max 1 µM)
combination Emax [1]: 0.282
combination Emax [2]: 0.964
combination Emax [3]: 0.17
combination Emax (GI-ME-N (Neuroblastoma)): 0.196
combination Emax [4]: 0.106
combination Emax [5]: 0.208
combination Emax (LN-405 (Glioblastoma)): 0.17
combination Emax [6]: 0.15
combination Emax (PA-1 (Ovarian Carcinoma)): 0.779
combination Emax [7]: 0.844
combination Emax (NCI-H2591 (Mesothelioma)): 0.237
combination Emax [8]: 0.196
combination Emax (U-2-OS (Osteosarcoma)): 0.142
combination Emax [9]: 0.131
combination Emax [10]: 0.238
combination Emax [11]: 0.915
combination Emax [12]: 0.184
combination Emax [13]: 0.291
combination Emax [14]: 0.33
combination Emax [15]: 0.177

CC(=O)c1c(C)c2cnc(Nc3ccc(N4CCNCC4)cn3)nc2n(C2CCCC2)c1=O [Palbociclib] + Cc1c2c(nn1C)CSCc1cc(n(C)n1)CSc1cc(c3ccccc3c1)OCCCc1c(C(=O)O)n(C)c3c-2c(Cl)ccc13 [AZD5991] (first compound max 10 µM, 7x7, partner max 1 µM)
combination Emax [1]: 0.3
combination Emax [2]: 0.966
combination Emax [3]: 0.213
combination Emax (GI-ME-N (Neuroblastoma)): 0.332
combination Emax [4]: 0.941
combination Emax [5]: 0.266
combination Emax (LN-405 (Glioblastoma)): 0.208
combination Emax [6]: 0.965
combination Emax (PA-1 (Ovarian Carcinoma)): 0.872
combination Emax [7]: 0.708
combination Emax (NCI-H2591 (Mesothelioma)): 0.279
combination Emax [8]: 0.309
combination Emax (U-2-OS (Osteosarcoma)): 0.274
combination Emax [9]: 0.195
combination Emax [10]: 0.223
combination Emax [11]: 0.911
combination Emax [12]: 0.198
combination Emax [13]: 0.951
combination Emax [14]: 0.431
combination Emax [15]: 0.236

CC(=O)c1c(C)c2cnc(Nc3ccc(N4CCNCC4)cn3)nc2n(C2CCCC2)c1=O [Palbociclib] + Cn1cnc2c(F)c(Nc3ccc(Br)cc3Cl)c(C(=O)NOCCO)cc21 [Selumetinib] (first compound max 10 µM, 7x7, partner max 10 µM)
combination Emax [1]: 0.344
combination Emax [2]: 0.81
combination Emax [3]: 0.19
combination Emax (GI-ME-N (Neuroblastoma)): 0.245
combination Emax [4]: 0.477
combination Emax [5]: 0.645
combination Emax (LN-405 (Glioblastoma)): 0.103
combination Emax [6]: 0.177
combination Emax (PA-1 (Ovarian Carcinoma)): 0.827
combination Emax [7]: 0.345
combination Emax (NCI-H2591 (Mesothelioma)): 0.288
combination Emax [8]: 0.139
combination Emax (U-2-OS (Osteosarcoma)): 0.601
combination Emax [9]: 0.15
combination Emax [10]: 0.671
combination Emax [11]: 0.539
combination Emax [12]: 0.244
combination Emax [13]: 0.536
combination Emax [14]: 0.38
combination Emax [15]: 0.49

COc1cccc(OCCCN)c1-c1cc(Nc2cnc(C#N)cn2)n[nH]1 [Prexasertib] + C=CCn1c(=O)c2cnc(Nc3ccc(N4CCN(C)CC4)cc3)nc2n1-c1cccc(C(C)(C)O)n1 [AZD1775] (first compound max 1 µM, partner max 1 µM)
combination Emax [1]: 0.908
combination Emax [2]: 0.985
combination Emax [3]: 0.925
combination Emax (GI-ME-N (Neuroblastoma)): 0.513
combination Emax [4]: 0.945
combination Emax [5]: 0.777
combination Emax (LN-405 (Glioblastoma)): 0.587
combination Emax [6]: 0.86
combination Emax (PA-1 (Ovarian Carcinoma)): 0.851
combination Emax [7]: 0.861
combination Emax (NCI-H2591 (Mesothelioma)): 0.472
combination Emax [8]: 0.588
combination Emax (U-2-OS (Osteosarcoma)): 0.934
combination Emax [9]: 0.6
combination Emax [10]: 0.954
combination Emax [11]: 0.904
combination Emax [12]: 0.621
combination Emax [13]: 0.75
combination Emax [14]: 0.461
combination Emax [15]: 0.431
